Measured values as given in patent US20240353338A1 (priority 2023, published 2024).

Test system: early Delta variant of SARS-CoV-2
Assay type: cell-based

Question: For `C[C@@H](OC(C)(C)C)[C@H](NC(=O)OCc1ccccc1)C(=O)N[C@@H](CC1CCCCC1)C(=O)N[C@H](C=O)C[C@@H]1CCNC1=O` [MPI8], which “antiviral effectiveness (virus growth by reverse transcriptase quantitative PCR)” value is on record?
Answer: Its value is “inhibition of virus growth”.
